Results from US9345742B2, “Aminostatin derivatives for the treatment of arthrosis” (MERCK PATENT GMBH, priority 2011, dated 2016).
pIC50: −log10 of the molar value. Numbered stars: 1 amine (or outer) side, 2 acyl side, 3 side chain; on linkers, the order of the positions; unused ones are H or OH. Square brackets hold non-standard residues; d marks the D form. Peptide text beside a SMILES is read from it. * marks the point of attachment. X1 = N[C@@H](CC(=O)[*:2])[C@H](Cc1ccccc1)N[*:1]; Isovaleryl = CC(C)CC(=O)*; Abu = CC[C@H](N)C(=O)O; Ac3c = NC1(C(=O)O)CC1; Boc = CC(C)(C)OC(=O)*

What was measured:
[1] = molecular target: cathepsin D isolated from the human liver (Homo sapiens (Human), UniProt P07339); assay: In-vitro fluorescence assay for identification of cathepsin D inhibitors; format: biochemical; conditions: cathepsin D 1.4 nM, pH 5.5; read-out: CatD assay IC50-
Chain of cathepsin D isolated from the human liver (P07339 65-161): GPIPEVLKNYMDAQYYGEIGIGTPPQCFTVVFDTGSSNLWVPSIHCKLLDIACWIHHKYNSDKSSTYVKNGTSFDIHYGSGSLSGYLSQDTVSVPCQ
Chain of cathepsin D isolated from the human liver (P07339 169-412): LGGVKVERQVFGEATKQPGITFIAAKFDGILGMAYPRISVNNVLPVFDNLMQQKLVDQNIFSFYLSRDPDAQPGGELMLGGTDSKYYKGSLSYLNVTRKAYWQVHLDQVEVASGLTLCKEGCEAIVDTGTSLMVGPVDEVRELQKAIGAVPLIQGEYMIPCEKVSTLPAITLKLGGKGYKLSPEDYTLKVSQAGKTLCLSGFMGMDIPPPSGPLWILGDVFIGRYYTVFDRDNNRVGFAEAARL
Description: In order to identify modulators of cathepsin D activity, a continuous enzymatic test was carried out with a synthetic peptide which carries a fluorescent group (MCA=(7-methoxycoumarin-4-yl)acetyl) which is quenched by energy transfer from a Dpn (2,4 dinitrophenyl) group on the same molecule, in Greiner 384-well nb microtitre plates. Cleavage of the peptidic substrate by cathepsin D causes an increase in the fluorescence intensity. In order to determine the efficacy of substances, the time-dependent increase in the fluorescence intensity in the presence of the substance was compared with the time-dependent increase in fluorescence in the absence of substances. The reference substance used was pepstatin A (Sigma-Aldrich). The substrate used was […](Dnp)d-R—NH2 (Enzo Life Sciences, Lörrach). The enzyme employed was cathepsin D isolated from the human liver (Sigma-Aldrich) in a final concentration of 1.4 nM. The test was carried out in 100 mM sodium acetate buffer, 1.25% (v/v) of DMSO, 0.25% (w/v) of Chaps, pH 5.5. 2 μl of each substance solution with serially diluted substance concentration were added to in each case 4 μl of cathepsin D solution and incubated at room temperature for 10 min. The reaction was started by addition of 2 μl of substrate solution (final concentration 5 μM). After carrying out a starting-point fluorescence measurement (excitation wavelength 340 nm/emission wavelength 450 nm) using an Envision multilabel reader (Perkin Elmer), the reaction was incubated at room temperature for 60 min. The amount of peptide fragment cleaved off during the reaction time was subsequently measured by determination of the increase in the fluorescence intensity at 450 nm (excitation wavelength 340 nm).

recombinant human renin = recombinant human renin (Homo sapiens (Human), UniProt P00797); assay: In-vitro fluorescence assay for identification of renin-inhibitory activity; format: biochemical; conditions: recombinant human renin 10 nM, pH 7.2; read-out: Renin selectivity IC50
Chain of recombinant human renin (P00797 67-406): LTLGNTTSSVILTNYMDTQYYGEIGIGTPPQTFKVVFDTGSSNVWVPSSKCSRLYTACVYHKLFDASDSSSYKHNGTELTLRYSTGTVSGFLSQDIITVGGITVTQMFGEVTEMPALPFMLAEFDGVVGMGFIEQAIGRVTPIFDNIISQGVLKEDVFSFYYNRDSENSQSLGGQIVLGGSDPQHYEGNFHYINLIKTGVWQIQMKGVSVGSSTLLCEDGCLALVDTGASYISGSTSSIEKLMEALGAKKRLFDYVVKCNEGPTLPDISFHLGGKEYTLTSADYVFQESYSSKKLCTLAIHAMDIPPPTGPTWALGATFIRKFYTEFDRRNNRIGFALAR
Description: In order to identify modulators of renin activity, a continuous enzymatic test was carried out with a synthetic peptide which carries a fluorescent group Edans (=(5-(aminoethyl)aminonaphthalenesulfonate) which is quenched by energy transfer from a Dabcyl (4′-dimethylaminoazobenzene-4-carboxylate) group on the same molecule, in Greiner 384-well microtitre plates. Cleavage of the peptidic substrate by renin causes an increase in the fluorescence intensity. In order to determine the efficacy of substances, the time-dependent increase in the fluorescence intensity in the presence of the substance was compared with the time-dependent increase in fluorescence in the absence of substances. The reference substance used was renin inhibitor 2 (Z-Arg-Arg-Pro-Phe-His-Sta-Ile-His N-Boc-Lys methyl ester Z) (Sigma-Aldrich). The substrate used was renin FRET substrate I (DABCYL-g-Abu-[…]EDANS) (Anaspec, Fremont Calif.). The enzyme employed was recombinant human renin (Proteos, Kalamazoo, Mich.) in a final concentration of 10 nM. The test was carried out in 50 mM Mops buffer, 1.5% (v/v) of DMSO, 0.1% (w/v) of Igepal®, pH 7.2, 0.5% (w/v) of BSA. 2 μl of each substance solution with serially diluted substance concentration were added to in each case 4 μl of renin solution and incubated at room temperature for 15 min. The reaction was started by addition of 4 μl of substrate solution (final concentration 5 μM). After carrying out a starting-point fluorescence measurement (excitation wavelength 340 nm/emission wavelength 495 nm) using an Envision multilabel reader (Perkin Elmer), the reaction was incubated at 37° C. for 60 min. The amount of peptide fragment cleaved off during the reaction time was subsequently measured by determination of the increase in the fluorescence intensity at 495 nm (excitation wavelength 340 nm).

SMILES	pIC50 [1]	pIC50 (recombinant human renin)
CC[C@H](NC(=O)[C@@H](N)CC(C)C)C(=O)N[C@@H](Cc1ccccc1)[C@@H](N)CC(=O)N[C@H](C(=O)N[C@H](C(=O)OC)C(C)C)[C@@H](C)CC [Compound 2, Methyl (S)-2-((2S,3S)-2-{(3S,4S)-3-amino-4-[(S)-2-((S)-2-amino-4-methylpentanoylamino)butyrylamino]-5-phenylpentanoylamino}-3-methylpentanoylamino)-3-methyl-butyrate] (H-L[Abu][X1]IV-OMe)	5.70	< 4.52
CC[C@H](C)[C@H](NC(=O)C[C@H](N)[C@H](Cc1ccccc1)NC(=O)[C@@H](NC(=O)[C@H](CC(C)C)NC(=O)CC(C)C)C(C)C)C(=O)N[C@H](C(=O)OC)C(C)C [Compound 10, Methyl (S)-2-[(2S,3S)-2-((3S,4S)-3-amino-4-{(S)-3-methyl-2-[(S)-4-methyl-2-(3-methyl-butyrylamino)pentanoylamino]-1-oxobutylamino}-5-phenylpentanoylamino)-3-methylpentanoylamino]-3-methyl-butyrate] (Isovaleryl-LV[X1]IV-OMe)	8.29	–
CCOC(=O)C1(NC(=O)[C@@H](NC(=O)C[C@H](N)[C@H](Cc2ccccc2)NC(=O)[C@@H](NC(=O)[C@H](CC(C)C)NC(=O)CC(C)C)C(C)C)[C@@H](C)CC)CC1 [Compound 12, Ethyl 1-[(2S,3S)-2-((S)-3-(S)-amino-4-((S)-3-methyl-2-[(S)-4-methyl-2-(3-methyl-butyrylamino)pentanoylamino]butyryl-amino}-5-phenylpentanoylamino)-3-methyl-pentanoylamino] cyclopropanecarboxylate] (Isovaleryl-LV[X1]I[Ac3c]-OEt)	6.96	< 4.52
CC[C@H](C)[C@H](NC(=O)C[C@H](N)[C@H](Cc1ccccc1)NC(=O)[C@@H](NC(=O)[C@H](CC(C)C)NC(=O)CC(C)C)C(C)C)C(=O)N[C@H](CO)C(C)C [Compound 34, N-[(1S,2S)-1-((S)-1-Hydroxymethyl-2-methylpropylcarbamoyl)-2-methylbutyl]-(S)-3-(S)-amino-4-{(S)-3-methyl-2-[(S)-4-methyl-2-(3-methylbutyrylamino)pentanoyl-amino]butyrylamino}-5-phenylpentanamide]	8.21	–
CC[C@H](C)[C@H](NC(=O)C[C@H](N)[C@H](Cc1ccccc1)NC(=O)[C@@H](NC(=O)COc1cccc2ccccc12)C(C)C)C(=O)N[C@H](C(=O)OC)C(C)C [Compound 8, Methyl (S)-2-[(2S,3S)-2-((3S,4S)-3-amino-4-{(S)-3-methyl-2-[2-(naphthalen-1-yloxy)-acetylamino]butyrylamino}-5-phenyl-pentanoylamino)-3-methylpentanoyl-amino]-3-methylbutyrate]	6.70	< 4.52
CC[C@H](C)[C@H](NC(=O)C[C@H](N)[C@H](Cc1ccccc1)NC(=O)[C@@H](NC(=O)Cc1cccc(NS(C)(=O)=O)c1)C(C)C)C(=O)N[C@H](C(=O)OC)C(C)C [Compound 9, Methyl (S)-2-[(2S,3S)-2-((3S,4S)-3-amino-4-{(S)-2-[2-(3-methanesulfonylamino-phenyl)-acetylamino]-3-methylbutyrylamino}-5-phenylpentanoylamino)-3-methyl-pentanoylamino]-3-methylbutyrate]	7.09	< 4.52
CC[C@H](C)[C@H](NC(=O)C[C@H](N)[C@H](Cc1ccccc1)NC(=O)[C@@H](NC(=O)[C@@H](N)Cc1ccccc1)C(C)C)C(=O)N[C@H](C(=O)OC)C(C)C [Compound 21, Methyl (S)-2-((2S,3S)-2-{(3S,4S)-3-amino-4-[(S)-2-((S)-2-amino-3-phenylpropionylamino)-3-methylbutyrylamino]-5-phenyl-pentanoylamino)-3-methylpentanoyl-amino)-3-methylbutyrate] (H-FV[X1]IV-OMe)	7.09	–
CC[C@H](C)[C@H](NC(=O)C[C@H](N)[C@H](Cc1ccccc1)NC(=O)[C@@H](NC(=O)[C@H](CC(C)C)NC(=O)CC(C)C)C(C)C)C(=O)N[C@H](C(=O)OC)[C@@H](C)CC [Compound 13, Methyl (2S,3S)-2-[(S)-2-((S)-3-(S)-amino-4-{(S)-3-methyl-2-[(S)-4-methyl-2-(3-methyl-butyrylamino)pentanoylamino]butyryl-amino}-5-phenylpentanoylamino)-3-methyl-1-(S)-oxopentylamino]-3-methylpentanoate] (Isovaleryl-LV[X1]II-OMe)	7.33	–
CC[C@H](NC(=O)[C@H](CC(C)C)NC(=O)CC(C)C)C(=O)N[C@@H](Cc1ccccc1)[C@@H](N)CC(=O)N[C@H](C(=O)N[C@H](C(=O)OC)C(C)C)[C@@H](C)CC [Compound 4, Methyl (S)-2-[(2S,3S)-2-((3S,4S)-3-amino-4-{(S)-2-[(S)-4-methyl-2-(3-methylbutyrylamino)pentanoylamino]-1-oxobutylamino}-5-phenylpentanoylamino)-3-methyl-pentanoylamino]-3-methylbutyrate] (Isovaleryl-L[Abu][X1]IV-OMe)	7.01	–
CC[C@H](C)[C@H](NC(=O)C[C@H](N)[C@H](Cc1ccccc1)NC(=O)[C@H](CC(C)C)NC(=O)CC(C)C)C(=O)N[C@H](C(=O)OC)C(C)C [Compound 3, Methyl (S)-2-((2S,3S)-2-{(3S,4S)-3-amino-4-[(S)-4-methyl-2-(3-methylbutyrylamino)pentanoylamino]-5-phenylpentanoylamino}-3-methylpentanoylamino)-3-methyl-butyrate]	5.26	–
CC[C@H](C)[C@H](NC(=O)C[C@H](N)[C@H](Cc1ccccc1)NC(=O)[C@@H](NC(=O)COc1ccc(Cl)cc1Cl)C(C)C)C(=O)N[C@H](C(=O)OC)C(C)C [Compound 22, Methyl (S)-2-[(2S,3S)-2-((3S,4S)-3-amino-4-{(S)-2-[2-(2,4-dichlorophenoxy)acetylamino]-3-methylbutyrylamino)-5-phenyl-pentanoylamino)-3-methylpentanoyl-amino]-3-methylbutyrate]	7.57	–
CC[C@H](C)[C@H](NC(=O)C[C@H](N)[C@H](Cc1ccccc1)NC(=O)[C@@H](NC(=O)[C@H](Cc1ccccc1)NC(=O)CC(C)C)C(C)C)C(=O)N[C@H](CO)C(C)C [Compound 42, N-[(1S,2S)-1-((S)-1-Hydroxymethyl-2-methylpropylcarbamoyl)-2-methylbutyl]-(S)-3-(S)-amino-4-{(S)-3-methyl-2-[(S)-2-(3-methylbutyrylamino)-3-phenylpropionylamino]butyrylamino}-5-phenylpentanamide]	8.44	–
CC[C@H](C)[C@H](NC(=O)C[C@H](N)[C@H](Cc1ccccc1)NC(=O)[C@@H](NC(=O)[C@H](Cc1ccccc1)NC(=O)OC(C)(C)C)C(C)C)C(=O)N[C@H](C(=O)OC)C(C)C [Compound 20, Methyl (S)-2-((2S,3S)-2-{(3S,4S)-3-amino-4-[(S)-2-((S)-2-tert-butoxycarbonylamino-3-phenylpropionylamino)-3-methylbutyrylamino]-5-phenylpentanoylamino}-3-methyl-pentanoylamino)-3-methylbutyrate] (Boc-FV[X1]IV-OMe)	9.00	–
CC[C@H](C)[C@H](NC(=O)C[C@H](N)[C@H](Cc1ccccc1)NC(=O)[C@@H](NC(=O)[C@H](CC(C)C)NC(=O)OC(C)(C)C)C(C)C)C(=O)N[C@H](C(=O)OC)C(C)C [Compound 16, Methyl (S)-2-((2S,3S)-2-{(3S,4S)-3-amino-4-[(S)-2-((S)-2-tert-butoxycarbonylamino-4-methylpentanoylamino)-3-methylbutyrylamino]-5-phenylpentanoylamino}-3-methyl-pentanoylamino)-3-methylbutyrate] (Boc-LV[X1]IV-OMe)	7.44	–
